Here are results for four compounds from patent publication EP0457908A1, “HYDROCHLORIDE 2,3,3a,4,5,6-HEXAHYDRO-8-CYCLOHEXYL-1H-PYRAZINO (3,2,1-j,k)CARBAZOL, METHOD OF OBTAINING IT AND A PHARMACEUTICAL PREPARATION OF ANTIDEPRESSIVE ACTION BASED ON IT” (priority 1989, dated 1991).

SMILES strings stand for the structures. Where a name gives a salt, the structure may show the parent alone.

One series has as its system male white mice. In words: Hyperlocomotion induced by d,l-amphetamine. The following applies: 10-20 minutes after d,l-amphetamine 2.5 mg/kg intraperitoneally, distilled water 1,924.5±177.6. It is filed as in vivo. Here is the method:
The influence on hyperlocomotion induced by d,l-amphetamine was studied in experiments on male white mice with a mass of 20-22 g.
The locomotive activity of the mice was recorded 10-20 minutes after administration of d,l-amphetamine for 10 minutes.

A further series relates to white rats. The experiment in a line: Stereotypy induced by d,l-amphetamine. The following applies: distilled water = 100. It is filed as in vivo. The procedure:
To evaluate the influence on stereotypy, the experiments were carried out on white rats of both sexes with a mass of 100-150 g. […] Stereotypy was assessed in points of from to 3 (after Janssen et al., 1967).

In another series the test system is cats. The experiment in a line: Bioelectrical activity of the brain (electroencephalogram), cats. It is filed as in vivo. The settings on record: for effect on the electroencephalogram: dose and species not given. The text has this: The study of the effect on the bioelectrical activity of the brain was effected in acute experiments using 8 consious cats immobilized with diplacin with a mass of 2.5-3.4 kg under conditions of a controlled breathing and 25 rabbits with a mass of 2.6-3.1 kg with chronically implanted electrodes. Recorded on an electroencephalograph was an electroencephalogram of the sensomotor, parietal and visual regions of the cerebral cortex in cats, plus that of the reticular formation of the midbrain, dorsal hippocamp and amygdala in rabbits.

For series [1], the system named is white mice. In words: Porsolt's swimming behaviour test (duration of immobilization). Format: in vivo. The following applies: for Duration of immobilization, %: distilled water = 100. The procedure: The effect of the compound according to the present invention on the duration of immobilization in Porsolt's swimming behaviour test (Porsolt et al., 1977) in experiments on white mice of both sexes with a mass of 16-18 g. […] Sixty minutes after the last (or a single) administration of the preparations, the mice were placed into cylinders (10 cm diameter, 25 cm height) filled with water to 6 cm. The temperature of water was 21-22 °C. […] The number and duration of all stops in swimming (immobilization) over the observation period were recorded.

The test system of a further series is male rats. In words: Conditional reflex of passive avoidance after amnesia (antiamnestic effect). The following applies: for Number of rats, %, remained on the platform for 1 minute, 2.5 hours after administration of scopolamine (1 mg/kg hypodermally): amnesia control 10±3.3, distilled water 85±2.0; for Number of rats, %, remained on the platform for 1 minute, 1 day after electric shock: electroshock alone 14.2±3.0, distilled water 85±2.0. Format: in vivo. Here is the method: Also studied was the effect of the compound according to the present invention on reproduction of the memory traces upon amnesia.
The experiments were carried out using male rats of a mass of 180-220 g.
The antiamnestic effect of the compound according to the present invention was assessed by the method of a conditional reflex of a passive avoidance with a subsequent use, as amnesic factors, of an electric shock (50 mA, 0.3 ms) through ear electrodes or scopolamine (1 mg/kg hypodermally).
The learning of the conditional reflex of a passive avoidance was effected by the "Step-down" method (Izquerdo, 1981) in an experimental unit consisting of a 30x30x40 cm chamber with an electrified floor having in its centre a plastic platform of 10x15x0.5 cm size. A rat was placed onto the platform and a latent period of its escape therefrom was recorded (in seconds). When escaping the platform onto the floor, the rat was subjected to an electric irritation on paws (0.5 mA, 10 seconds) that made it to climb the platform. The learning course took 6 sessions, each of 3 minutes duration. The conditional response was regarded as acquired if an animal remained on the platform for 1 minute.
The amnesic effect was produced immediately after learning course and 30 minutes thereafter the compound according to the present invention was administered in the doses of 1 and 3 mg/kg or (for comparison) pyracetam was administered in the doses of 100, 300, 600 and 1,000 mg/kg. The reproduction of the memory trace was assessed 24 hours after the electric shock and 2.5 hours after administration of scopolamine.

Series [2] in a line: Pharmacokinetics: penetration into and stay in the brain tissues. The settings on record: in vivo.
Series [3] relates to white mice. In words: Enhancement of the effect of 5-hydroxytryptophane (head shaking). The settings on record: Mus musculus, po, 25 min; orally, 60 minutes prior to 5-hydroxytryptophane 50 mg/kg intraperitoneally; read 25 minutes after; read-out: ED₅₀, the dose at which head shaking were noticed in 50% of the animals. Format: in vivo. The procedure:
The compound according to the present invention was tasted for the exciting effect of 5-hydroxytryptophane (head shaking).
The compound according to the present invention in the doses of 1.0, 2.5, 5.0 and 10 mg/kg was administered orally 60 minutes prior to an intraperitoneal administration of 5-hydroxytryptophane (50 mg/kg).

[4] abbreviates: 5-days' administration, 10.0 mg/kg orally (dose from row order).
Where [5] appears, read: 5-days' administration, 25.0 mg/kg orally (dose from row order).
[6] abbreviates: 18-days' administration, 10.0 mg/kg orally (dose from row order).
Setting [7] is: 18-days' administration, 25.0 mg/kg orally (dose from row order).
The mark [8] stands for this setting: single administration, 10.0 mg/kg orally.
The mark [9] stands for this setting: single administration, 25.0 mg/kg orally.

In the case of `CN(C)CCCN1c2ccccc2CCc2ccccc21` [Imipramine, N-(3-dimethylaminopropyl)-aminodibenzyl hydrochloride], the “Average value of locomotor activity of a group of 5 mice for 10 minutes” value with male white mice (5.0 mg/kg oral) is recorded as 1,440.3±365.2; in the series on male white mice (10.0 mg/kg oral) it was 2,024.5±221.7. Also, the “Stereotypy (tolal, for 4 measurements for 4 hours after hypodermal administration of d,l-amphetamine), %” value in the series on white rats (oral dose 5.0 mg/kg) is 200%; in the series with white rats (oral dose 10.0 mg/kg), 306%. In the series with cats, the “effect on the electroencephalogram” value is reported as “synchronizing effect”. Further, the “Duration of immobilization, Seconds, M±m” value with white mice [1] (setting [4]) came to 92 ± 5.9 s; with white mice [1] (setting [5]) it was 61 ± 6.3 s; with white mice [1] (setting [6]), 96 ± 9.8 s; with white mice [1] (setting [7]) it was 66 ± 9.8 s; in the series with white mice [1] (setting [8]), 131 ± 5.6 s. The “Duration of immobilization, %” value worked out at 59% in the series with white mice [1] (setting [4]); 39% with white mice [1] (setting [5]); 52% in the series with white mice [1] (setting [6]); 36% in the series with white mice [1] (setting [7]); 88% in the series with white mice [1] (setting [8]); 70% with white mice [1] (setting [9]).
In the case of `NC(=O)CN1CCCC1=O` [Pyracetam], the figures for the “Number of rats, %, remained on the platform for 1 minute, 2.5 hours after administration of scopolamine (1 mg/kg hypodermally)” value in the series with male rats (100 mg/kg oral), in the series with male rats (300 mg/kg oral) and in the series with male rats (600 mg/kg oral) were 12±5.5%, 13±1.6% and 20±5.5%, respectively. For the same compound, the “Number of rats, %, remained on the platform for 1 minute, 1 day after electric shock” value in the series on male rats (100 mg/kg oral) was 12±3.3%; in the series on male rats (300 mg/kg oral), 13±4.2%; with male rats (600 mg/kg oral), 12±3.3%; in the series on male rats (1000 mg/kg oral), 46±6.4%.
For `Cc1ccc2c(c1)c1c3n2CCNC3CCC1` (stereo not shown) [Pyrazidol, 2,3,3a,4,5,6-hexahydro-8-methyl-1H-pyrazino(3,2,1-j,k)-carbazole hydrochloride], the “Average value of locomotor activity of a group of 5 mice for 10 minutes” value in the series with male white mice (5.0 mg/kg oral) was 1,440.0±380.2; with male white mice (10.0 mg/kg oral) it was 1,926.0±119.9. Moreover, the “Stereotypy (tolal, for 4 measurements for 4 hours after hypodermal administration of d,l-amphetamine), %” value was 165% in the series with white rats (oral dose 5.0 mg/kg) and 210% in the series with white rats (oral dose 10.0 mg/kg). Further, the “effect on the electroencephalogram of the cortex and subcortical structures of the brain” value in the series with cats (1 to 5 mg/kg intravenously, species not specified) is reported as “predominantly activating effect”. The “time the drug remains in the brain tissues” value in series [2] was “at most 1.5 hours”. For the same compound, in the series on white mice [3], the ED50 was 20 mg/kg. Also, the “Duration of immobilization, Seconds, M±m” value is 142 ± 5.7 s in the series on white mice [1] (setting [4]); 116 ± 8.1 s with white mice [1] (setting [5]); 129 ± 8.0 s with white mice [1] (setting [6]); 112 ± 8.6 s in the series on white mice [1] (setting [7]); 164 ± 5.9 s in the series on white mice [1] (setting [8]); 144 ± 9.9 s in the series on white mice [1] (setting [9]). Besides, the “Duration of immobilization, %” value with white mice [1] (setting [4]) came out at 87%; in the series with white mice [1] (setting [5]), 71%; in the series with white mice [1] (setting [6]), 70%; in the series with white mice [1] (setting [7]), 61%; in the series with white mice [1] (setting [8]), 93%; in the series with white mice [1] (setting [9]) it was 82%.
`CN(C)CCC=C1c2ccccc2CCc2ccccc21` [amitryptyline, reference compound]: in the series with cats, the “effect on the electroencephalogram” value is “synchronizing effect”.
